Measurements: US20190055231A1, “BACE1 INHIBITORS” (Hoffmann-La Roche Inc., priority 2016, published 2019)
Where “and” joins values, the source holds several entries; their conditions need not be identical. Identical values can stand only once. Like-named read-outs stand apart in the source and are kept apart here.

What was measured:
[1] = biological target: T1, BACE2 (Homo sapiens, UniProt Q9Y5Z0); experiment: BACE2 cell-free assay (BACE2 enzyme assay); format: biochemical; conditions: for BACE2/BACE1 IC50 ratio: BACE2 IC50 divided by BACE1 IC50, cell free assays
T1 sequence (Q9Y5Z0 63-518): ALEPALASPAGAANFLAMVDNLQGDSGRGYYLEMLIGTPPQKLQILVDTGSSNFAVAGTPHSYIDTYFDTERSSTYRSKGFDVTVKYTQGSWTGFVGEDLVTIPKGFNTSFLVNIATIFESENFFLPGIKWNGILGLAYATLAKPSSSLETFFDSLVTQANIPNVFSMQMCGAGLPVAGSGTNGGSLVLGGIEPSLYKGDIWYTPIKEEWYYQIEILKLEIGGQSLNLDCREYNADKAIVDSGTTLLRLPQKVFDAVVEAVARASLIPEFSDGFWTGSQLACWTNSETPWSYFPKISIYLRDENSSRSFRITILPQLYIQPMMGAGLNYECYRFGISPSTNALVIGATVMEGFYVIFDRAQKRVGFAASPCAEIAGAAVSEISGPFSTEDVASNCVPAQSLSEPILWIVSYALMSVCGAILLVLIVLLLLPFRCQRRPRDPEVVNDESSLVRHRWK
Text: BACE2 Cell-Free Assay (BACE2 Enzyme Assay)
Selectivity versus related targets is important in terms of safety of a drug candidate. BACE2 is a close homolog of BACE1. BACE2 was recently reported to play a crucial role in pigmentation of the skin by processing pigment cell-specific melanocyte protein (PMEL). (Proc Natl Acad Sci USA. 2013 Jun. 25; 110(26):10658-63. doi: 10.1073/pnas.1220748110. Epub 2013 Jun. 10). It is believed that PMEL contributes in melanogenesis. Therefore, selectivity versus BACE2 is advantageous when it comes to pigmentation of the skin. The selectivity ratio of BACE2/BACE1 IC50 was calculated by dividing the BACE2 IC50 value by the BACE1 IC50 value determined each in the cell free assay. […] This implies a 3-fold improvement of example 1 compared to comparators 4 and 5.

[2] = Cynomolgus monkey single dose PK study; format: in vivo, Cynomolgus monkey (Macacaca fascicularis)
Text: Cynomolgus Monkey (Macacaca fascicularis) Single Dose PK Study and Plasma Aβ40 Determination
Blood and plasma collection will always be performed in the treatment cage. The animal care keeper grabs either one arm or one leg through the bars. The hairs are shaved for better visibility of the vein. The blood vessel is squeezed, the vein is punctured by using a butterfly and blood is taken. Once enough blood has been withdrawn a cotton swab is placed over the injection site and the needle is gently removed. Bleeding is stopped by pressing a cotton swab on the wound. Plasma samples were taken between 5 min and 48 h.
Plasma Preparation Cynomolgus
(§1) Blood is transferred into a labeled EDTA-K2 Eppendorf tube and the sample is mixed by inverting the tubes several times. Blood is stored at −20° C.

[3] = Rat single dose PK study; format: in vivo; conditions: 1 mg/kg; for concentration at 4 h: oral
Method: Rat Single Dose PK Study (Inhibition of CSF Aβ40 in Wistar Rats)
The rat single dose PK study was described in H. Hilpert et al., J. Med. Chem. 2013, 56, 3980-3995 (dx.doi.org/10.1021/jm400225m) with slight modifications.
as §1

[4] = biological target: Human P-gp (Homo sapiens, UniProt P08183); experiment: P-gp transport assay (human); format: in vitro ADME; conditions: efflux ratio
Text: P-Gp Transport Assay (Human and Mouse) (P-Gp Assay)
In the assay of the P-gp efflux ratio ER as described hereinabove, a compound with ER<2.5 is regarded most suitable. In addition, compounds with low hERG channel binding are suitable as well.

Chain of Human P-gp (P08183 whole entry): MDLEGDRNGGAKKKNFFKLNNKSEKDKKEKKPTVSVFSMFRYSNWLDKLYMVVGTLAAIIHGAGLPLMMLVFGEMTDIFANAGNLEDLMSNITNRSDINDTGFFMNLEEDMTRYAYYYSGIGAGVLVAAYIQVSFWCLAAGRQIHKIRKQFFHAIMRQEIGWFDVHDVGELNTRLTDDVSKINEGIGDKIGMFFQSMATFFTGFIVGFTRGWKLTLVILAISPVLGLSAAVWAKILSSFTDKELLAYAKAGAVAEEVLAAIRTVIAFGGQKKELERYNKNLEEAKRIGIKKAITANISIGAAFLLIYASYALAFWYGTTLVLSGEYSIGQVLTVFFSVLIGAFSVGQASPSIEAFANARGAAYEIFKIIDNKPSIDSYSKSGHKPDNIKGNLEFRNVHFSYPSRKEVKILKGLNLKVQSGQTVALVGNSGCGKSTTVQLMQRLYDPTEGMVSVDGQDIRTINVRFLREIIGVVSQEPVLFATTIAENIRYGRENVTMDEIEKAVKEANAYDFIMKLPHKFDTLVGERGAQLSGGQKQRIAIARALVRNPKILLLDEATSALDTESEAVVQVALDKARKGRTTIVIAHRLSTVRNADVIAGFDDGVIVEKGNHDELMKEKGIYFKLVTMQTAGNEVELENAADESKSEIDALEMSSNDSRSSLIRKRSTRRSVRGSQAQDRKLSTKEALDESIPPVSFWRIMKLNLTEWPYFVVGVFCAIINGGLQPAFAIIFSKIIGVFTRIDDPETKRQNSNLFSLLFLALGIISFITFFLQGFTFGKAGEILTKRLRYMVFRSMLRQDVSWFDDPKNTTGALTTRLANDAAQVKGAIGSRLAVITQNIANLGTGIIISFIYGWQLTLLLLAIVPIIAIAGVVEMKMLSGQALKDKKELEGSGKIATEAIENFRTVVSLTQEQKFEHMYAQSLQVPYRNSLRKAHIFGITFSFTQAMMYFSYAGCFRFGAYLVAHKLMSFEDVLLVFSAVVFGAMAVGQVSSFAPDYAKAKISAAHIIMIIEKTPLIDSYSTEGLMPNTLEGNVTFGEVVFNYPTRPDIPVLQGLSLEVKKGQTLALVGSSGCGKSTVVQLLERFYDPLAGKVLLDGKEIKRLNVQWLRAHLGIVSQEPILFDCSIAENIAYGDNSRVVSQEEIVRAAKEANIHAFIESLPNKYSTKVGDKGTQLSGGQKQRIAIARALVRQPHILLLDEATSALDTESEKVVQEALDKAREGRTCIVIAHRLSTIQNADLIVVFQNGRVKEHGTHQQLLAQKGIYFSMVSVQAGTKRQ

## Cc1cc(C#N)cnc1C(=O)Nc1ccc(F)c([C@@]2(C)N=C(N)O[C@H](C(F)(F)F)[C@@H]2F)n1 [Example 1, N-(6-((4R,5R,6S)-2-amino-5-fluoro-4-methyl-6-(trifluoromethyl)-5,6-dihydro-4H-1,3-oxazin-4-yl)-5-fluoropyridin-2-yl)-5-cyano-3-methylpicolinamide]
[1]
  improvement of BACE2/BACE1 selectivity compared to comparators 4 and 5: 3 fold
  BACE2/BACE1 IC50 ratio: 2.0
[1]; listed as example 1
  BACE2/BACE1 IC50 ratio: 2
[2]; p.o., dose normalized
  AUC(0-24)/D p.o.: 4160 kg·ng·h/mL/mg
[2]; plasma
  clearance: 2.1 mL/min/kg
[2]; plasma, po, read-out: Oral Bioavailability F
  bioavailability: 52%
[2]; plasma, po, read-out: t1/2 p.o. (converted)
  half-life: 19 h
[3]; 4 h, free unbound
  Plasma concentration at 4 h, free: 12.5 nM
[3]; 4 h, total
  Plasma concentration at 4 h: 90.2 nM
[3]; Wistar, plasma, 4 h, free unbound, read-out: Plasma concentration at 4 h, free
  concentration at 4 h: 12.5 nM
[3]; Wistar, plasma, 4 h, free, read-out: Plasma concentration at 4 h, free
  concentration at 4 h: 41 ng/mL
[3]; Wistar, plasma, 4 h, total, read-out: Plasma concentration at 4 h
  concentration at 4 h: 90 nM and 41 ng/mL
[3]; Wistar, plasma, po, read-out: Oral Bioavailability F
  bioavailability: 62%
[4]
  Human P-gp ER: 1.7
